# According to patent publication US20180042925A1, “METHODS FOR TREATING CANCER” (CHILDREN'S HOSPITAL MEDICAL CENTER, priority 2015, published 2018):
# Legend:
# G62 cells = assay: CellTiter Glo cell viability assay, pharmacological SCD1 inhibition; assay type: cell-based, human; conditions: vs vehicle (DMSO), FIG. 2B
# Procedure: For the pharmacological inhibition studies of FIGS. 2B and 2C, an equal number of G62 cells was seeded in 96 wells in the presence of SCD1 inhibitor or vehicle (DMSO) in quadruplicate. Viable cells were quantified at indicated times using CellTiter Glo cell viability assay kit (Promega).
# G68 cells = assay: as above; assay type: cell-based, human; conditions: vs vehicle (DMSO), FIG. 2C
compound,measurement,setting,value
"Cc1nnc(-c2ccc(N3CCC(Oc4cc(F)ccc4Cl)CC3)nn2)o1 [CAY10566, 3-[4-(2-chloro-5-fluorophenoxy)-1-piperidinyl]-6-(5-methyl-1,3,4-oxadiazol-2-yl)-pyridazine]",cell viability in the presence or absence of CAY10566,G62 cells,induction of G62 cell death and growth inhibition
same,cell viability in the presence or absence of CAY10566,G68 cells,induction of G68 cell death and growth inhibition
